Data published in patent US20260335329A1, “PROTEIN PHOSPHATASE AGONIST AND USE” (priority 2022, published 2026).
Several values for one entry are separate records, joined by “and”; a condition that tells them apart may be missing. Equal entries are not always repeated.

What was measured:
PP2A [1] = assay: Okadaic acid-induced PP2A protein expression level in PC12 cells (Western Blot); format: cell-based; conditions: for PP2A (Western Blot signal) / PP2A(%): 2 h, then okadaic acid 40 nmol/L, 24 h
Method: PC12 cells were inoculated into a T25 culture flask. After the cells were attached to the wall, compound 1 and compound 2 were added, and then the cells were incubated for 2 h. 40 nmol/L okadaic acid was then added. Then, the cells were incubated for 24 h. The protein was extracted. Based on the Western Blot assay, the PP2A protein expression level in PC12 cells was detected through SDS-PAGE and transfer, immunoblotting, color development, and G: BOX chemiXR5 imaging.

PC12 cells [2] = assay: Survival rate of PC12 cells in the Aβ1-42-induced injury model (CCK-8); format: cell-based; conditions: for OD value at 450 nm, Mean ± SD: 2 h, then Aβ1-42 40 μmol/L, 24 h, PC12 cells
PP2A [3] = assay: PP2A protein expression level in PC12 cells treated with Aβ (Western Blot); format: cell-based; conditions: then Aβ 40 μmol/L; for PP2A (Western Blot signal) / PP2A protein expression level, β-actin(%): 2 h, 24 h
Method: PC12 cells were cultured adherently. 0.1 μmol/L compound 2, 0.5 μmol/L compound 2, 1 μmol/L compound 2, 5 μmol/L compound 2, and 10 μmol/L compound 2 were added respectively. Then, the cells were incubated for 2 h. 40 μmol/L Aβ was then added. Then, the cells were incubated for 24 h. Total protein was extracted. PP2A activity was detected by the Western Blot assay.

[4] = system: p-tauSer396 in SH-SY5Y cells; assay: Okadaic acid-induced phosphorylation of tau protein (p-tauSer396) in SH-SY5Y cells (Western Blot); format: cell-based, human; conditions: for p-tauSer396 level (%): 24 h, then okadaic acid 40 nmol/L, SEM
Method: SH-SY5Y cells were cultured in vitro for 24 h in culture media containing different concentrations of compound 2. Then, the cells were treated with 40 nmol/L okadaic acid for 24 h. The p-tauSer396 level of the SH-SY5Y cells was measured by the Western Blot assay.

PC12 cells [5] = assay: Survival rate of PC12 cells in the okadaic acid-induced injury model (CCK-8); format: cell-based
Method: PC12 cells were detached and counted. A cell suspension was prepared at 8.0×10^4 cells/mL. 100 μL of the cell suspension was added to each well of a 96-well cell culture plate. The 96-well cell culture plate was placed in an incubator at 37° C. in 5% CO2 and cultured for 24 h. In an experimental group, the PC12 cells were pre-incubated for 2 h in a culture medium containing a test compound (the concentrations of the compound were 0.1 μmol/L, 0.5 μmol/L, 1 μmol/L, 5 μmol/L, and 10 μmol/L respectively, and the concentrations of the compound were set according to the concentrations in Table 5, Table 6, Table 7, and Table 8). […] In addition, a negative control group (no test compound or okadaic acid added) and a model group (only okadaic acid added) were set. The 96-well cell culture plate was placed in an incubator at 37° C. in 5% CO2 and cultured for 24 h. The cells in the 96-well cell culture plate were stained with 10 μL of CCK-8 in each well, and then cultured in the incubator for 1 h to 2 h. The 96-well cell culture plate was shaken gently for 10 min to mix uniformly and remove bubbles from the 96-well cell culture plate. The OD value of each well at 2=450 nm was read by using a microplate reader. A survival rate of cells was calculated.
Calculation formula for the cell survival rate: […]
The effect of each compound on the survival rate of PC12 cells in the okadaic acid- and Aβ1-42-induced injury models was determined by the CCK-8 cell proliferation assay.

[6] = compound 0.1 μmol/L, PC12 cells
[7] = compound 0.5 μmol/L, PC12 cells

COCc1cc2oc(=N)c3ccccc3n2n1 [Compound 2, 2-(methoxymethyl)-5H-benzo[d]pyrazolo[5,1-b][1,3]oxazin-5-imine]
PP2A (Western Blot signal) (PP2A [1]; compound 1 μmol/L): 557.1 | PP2A(%) (PP2A [1]; compound 1 μmol/L): 14% | PP2A (Western Blot signal) (PP2A [1]; compound 5 μmol/L): 688.01 | PP2A(%) (PP2A [1]; compound 5 μmol/L): 18% | PP2A (Western Blot signal) (PP2A [1]; compound 10 μmol/L): 1130.4 | PP2A(%) (PP2A [1]; compound 10 μmol/L): 29% | effect on the PP2A expression level (PP2A [1]; compound 1, 5 and 10 μmol/L, compared with okadaic acid only): can significantly increase the PP2A expression level dose-dependently | viability at 0.1 µM (PC12 cells [2]; Rattus norvegicus, PC-12, 24 h): 50.7% | viability at 0.5 µM (PC12 cells [2]; Rattus norvegicus, PC-12, 24 h): 50.6% | viability at 1 µM (PC12 cells [2]; Rattus norvegicus, PC-12, 24 h): 55.7% | viability at 5 µM (PC12 cells [2]; Rattus norvegicus, PC-12, 24 h): 68.3% | viability at 10 µM (PC12 cells [2]; Rattus norvegicus, PC-12, 24 h): 79.1% | OD value at 450 nm, Mean ± SD (PC12 cells [2]; compound 0.1 μmol/L): 0.699 ± 0.027 | OD value at 450 nm, Mean ± SD (PC12 cells [2]; compound 0.5 μmol/L): 0.698 ± 0.024 | OD value at 450 nm, Mean ± SD (PC12 cells [2]; compound 1 μmol/L): 0.768 ± 0.015 | OD value at 450 nm, Mean ± SD (PC12 cells [2]; compound 5 μmol/L): 0.941 ± 0.018 | OD value at 450 nm, Mean ± SD (PC12 cells [2]; compound 10 μmol/L): 1.09 ± 0.026 | survival rate compared with Aβ1-42 model group (PC12 cells [2]; compound 0.1 and 0.5 μmol/L): no statistical difference (P>0.05) | survival rate compared with Aβ1-42 model group (PC12 cells [2]; compound 1, 5 and 10 μmol/L): statistical differences (P<0.01) | PP2A (Western Blot signal) (PP2A [3]; [6]): 1025.7 | PP2A protein expression level, β-actin(%) (PP2A [3]; [6]): 31.24% | PP2A (Western Blot signal) (PP2A [3]; [7]): 1129.7 | PP2A protein expression level, β-actin(%) (PP2A [3]; [7]): 33.18% | PP2A (Western Blot signal) (PP2A [3]; compound 1 μmol/L, PC12 cells): 1180.1 | PP2A protein expression level, β-actin(%) (PP2A [3]; compound 1 μmol/L, PC12 cells): 33.51% | PP2A (Western Blot signal) (PP2A [3]; compound 5 μmol/L, PC12 cells): 1284.7 | PP2A protein expression level, β-actin(%) (PP2A [3]; compound 5 μmol/L, PC12 cells): 35.61% | PP2A (Western Blot signal) (PP2A [3]; compound 10 μmol/L, PC12 cells): 2192.1 | PP2A protein expression level, β-actin(%) (PP2A [3]; compound 10 μmol/L, PC12 cells (normal cells 58.95%)): 58.59% | effect on PP2A protein expression level (PP2A [3]; compound 10 μmol/L, PC12 cells): can significantly increase the PP2A protein expression level | effect on PP2A protein expression level (PP2A [3]; compound 0.1, 0.5, 1 and 5 μmol/L, PC12 cells): can increase the PP2A protein expression level in PC12 cells that is reduced due to Aβ, in a specific dose-effect relationship | okadaic acid-induced phosphorylation of tau protein ([4]; compared with okadaic acid only): can significantly inhibit okadaic acid-induced phosphorylation of tau protein in cells | p-tauSer396 level (%) ([4]; compound 0.1 μmol/L, n = 3): 0.761 ± 0.008% | p-tauSer396 level (%) ([4]; compound 0.3 μmol/L, n = 3): 0.663 ± 0.027% | change of p-tauSer396 level ([4]; compound 1.0 μmol/L and 3.0 μmol/L): decreases significantly (P<0.05) | p-tauSer396 level (%) ([4]; compound 1.0 μmol/L, n = 3, P<0.05 vs negative control): 0.557 ± 0.013 % | p-tauSer396 level (%) ([4]; compound 3.0 μmol/L, n = 3, P<0.05 vs negative control): 0.578 ± 0.025 % | change of p-tauSer396 level ([4]; compound 10 μmol/L): decreases significantly (P<0.01) | p-tauSer396 level (%) ([4]; compound 10 μmol/L, n = 3, P<0.01 vs negative control): 0.522 ± 0.016 % | viability at 0.1 µM (PC12 cells [5]; Rattus norvegicus, PC-12, 24 h, compound 0.1 μmol/L, 2 h, then okadaic acid 50 nmol/L, 24 h, PC12 cells): 49.2% | viability at 0.5 µM (PC12 cells [5]; Rattus norvegicus, PC-12, 24 h, compound 0.5 μmol/L, 2 h, then okadaic acid 50 nmol/L, 24 h, PC12 cells): 51% | viability at 1 µM (PC12 cells [5]; Rattus norvegicus, PC-12, 24 h, compound 1 μmol/L, 2 h, then okadaic acid 50 nmol/L, 24 h, PC12 cells): 59.4% | viability at 5 µM (PC12 cells [5]; Rattus norvegicus, PC-12, 24 h, compound 5 μmol/L, 2 h, then okadaic acid 50 nmol/L, 24 h, PC12 cells): 70.8% | viability at 10 µM (PC12 cells [5]; Rattus norvegicus, PC-12, 24 h, compound 10 μmol/L, 2 h, then okadaic acid 50 nmol/L, 24 h, PC12 cells): 78.4% | OD value at 450 nm, Mean ± SD (PC12 cells [5]; compound 0.1 μmol/L, 2 h, then okadaic acid 50 nmol/L, 24 h, PC12 cells): 0.652 ± 0.018 | OD value at 450 nm, Mean ± SD (PC12 cells [5]; compound 0.5 μmol/L, 2 h, then okadaic acid 50 nmol/L, 24 h, PC12 cells): 0.676 ± 0.016 | OD value at 450 nm, Mean ± SD (PC12 cells [5]; compound 1 μmol/L, 2 h, then okadaic acid 50 nmol/L, 24 h, PC12 cells): 0.787 ± 0.028 | OD value at 450 nm, Mean ± SD (PC12 cells [5]; compound 5 μmol/L, 2 h, then okadaic acid 50 nmol/L, 24 h, PC12 cells): 0.92 ± 0.008 and 0.967 ± 0.018 | Survival rate % (PC12 cells [5]; compound 5 μmol/L, 2 h, then okadaic acid 50 nmol/L, 24 h, PC12 cells, 1440 min, 5 µM): 72.93% | OD value at 450 nm, Mean ± SD (PC12 cells [5]; compound 10 μmol/L, 2 h, then okadaic acid 50 nmol/L, 24 h, PC12 cells): 1.04 ± 0.017 | survival rate compared with okadaic acid model group (PC12 cells [5]; compound 0.1 and 0.5 μmol/L): no statistical difference (P>0.05) | survival rate compared with okadaic acid model group (PC12 cells [5]; compound 1, 5 and 10 μmol/L): significant statistical differences (P<0.01)
